This is an account of results in PMC11431785, “From In Vitro Promise to In Vivo Reality: An Instructive Account of Infection Model Evaluation of Antimicrobial Peptides” (International Journal of Molecular Sciences, 2024).

Residues, ends and D or L forms follow the SMILES beside them. No end group written: not given here.

The subject of data set [1] is A. baumannii. The data set can be described thus: Histopathology: hematoxylin and eosin stain and tissue Gram stain. Format: in vivo, mouse. The settings on record: infected and treated mice. The method, then: Following termination of the animals, the following organs were harvested and preserved: right lung, digestive system, pancreas, kidneys, liver, spleen, and brain. These organs were fixed in paraformaldehyde at 4 °C for 24 h.
The tissue processing proceeded through a stepwise procedure. Firstly, the tissues underwent a rinse with formalin for 1.5 h, followed by cleaning with distilled water for 5 min. Subsequently, they were dehydrated using a series of graded ethanol solutions: 80% ethanol for 1 h, 96% ethanol for two consecutive immersions lasting 1 h each, and finally, 100% ethanol for 2 consecutive immersions of 1 h each and an additional immersion for 1.5 h. Following dehydration, the tissues were submerged in xylene for two immersions, each lasting 1.5 h, before being placed in hot liquid paraffin for two consecutive immersions of 1 h each and an additional immersion of 2 h. The treated specimens were embedded in tissue cassettes using a TissueTek embedding console and allowed to cool until the paraffin solidified.
From each paraffin block, […] sections were cut using a microtome (Leica) and mounted on slides. These slides underwent rehydration through a series of graded alcohols: 100% ethanol for 5 min, 85% ethanol for 5 min, 70% ethanol for 5 min, and distilled water. […] After drying, the sections were analyzed using a microscope (Leica DMR, Leica Biosystems, IL, United States). […]

Data set [2] has as its system Balb/c mice. The data set can be described thus: Tolerance assay 2. The data set is classed as in vivo, mouse. The method, then: Assay 2: Two randomly distributed groups of six female mice each were given two different concentrations of Ctn[15-34] (30 and 20 mg/kg). Each animal was treated with each dose three times a day for three days.
(§1) Body weight (BW, g) gain (%) was determined at different stages. In the tolerance assays, BW gain was recorded before inoculation and twice a week for 2 weeks. In the efficacy studies, BW gain was likewise measured before inoculation and then twice a day.
(§2) Nine clinical parameters were assessed by a scoring system (see Table S1). For each parameter a score from 0 to 3 in increasing severity was used. In the sighting (tolerance) study, the clinical score was measured at 10 min, 30 min, 1 h, 2 h, 4 h, 7 h, 24 h, and 48 h after peptide administration. In assays 1 and 2 of the tolerance study, scoring was recorded twice a week for 2 weeks. In the efficacy study, the clinical score was recorded every 2–3 h on day 0 and twice a day on days 1 and 2. An animal was euthanized if it scored 3 on any parameter, or if a combined score of 7 or above was reached.

Data set [3] relates to Balb/c mice. The data set can be described thus: Sighting study (tolerance in mice). The data set is classed as in vivo, mouse. As to conditions: for tolerance in sighting study: i.p., 30 mg/kg for Ctn[15-34] and Ctn[15-34] re, 3 mg/kg for Ctn re as initial doses; for time to death of an animal: sighting study, one animal. The method, then: To determine the maximum lethal dose and appropriate doses for the main study, a sighting study (Figure 2A) was first conducted. Peptides (Ctn[15-34], Ctn[15-34] re and Ctn re) were administered intraperitoneally (i.p.) at initial doses of 30 mg/kg for Ctn[15-34] and Ctn[15-34] re and 3 mg/kg for Ctn re. If no toxicity signs were observed, the dose was increased. If toxicity signs or death occurred, a lower dose was administered to another animal until an adequate dose was found. After the sighting study was completed, two main studies were performed.
as §2

The subject of data set [4] is Balb/c mice. The experiment in a line: Tolerance assay 1. Format: in vivo, mouse. As to conditions: single i.p. dose, 30 mg/kg Ctn[15-34], 3 mg/kg Ctn re, five female mice per group, 14 days. The method, then:
Assay 1: […] randomly distributed groups of five female mice each were used for Ctn[15-34] (30 mg/kg) and Ctn re (3 mg/kg) and negative control (HBS). Ctn[15-34] re was not included due to spontaneous mortality in the sighting study, even at low concentrations. The peptide was administered i.p., and mice were monitored twice on day 0, once a day until day 4, and then three times a week. The study lasted for 14 days, after which the animals were euthanized, and a systematic necropsy was performed.
as §1, §2

The conditions of data set [5]: cited from earlier work; for t1/2: human serum mixed 1:1 with peptide 1 mM in water, 37 °C with stirring, aliquots 0-1440 min, TCA precipitation, HPLC. The text has this: Table 1 Sequence and properties of peptides in this study. | column: t1/2 (min) || In this work, we focus on crotalicidin (Ctn), a 34-residue AMP from the venom of Crotalus durissus terrificus, a South American pit viper. […] It is, however, slightly toxic to eukaryotic cells, including cancer cells, which makes it a good anticancer peptide (ACP) candidate. Virtual Ctn dissection with elastase yields two fragments, Ctn[1-14] and Ctn[15-34]. While the former (KRFKKFFKKVKKSV) retains the α-helical conformation of Ctn, it loses both the anticance ...

For data set [6] the following is noted: fragments compared with Ctn; cited from earlier work. The text has this: In this work, we focus on crotalicidin (Ctn), a 34-residue AMP from the venom of Crotalus durissus terrificus, a South American pit viper. […] It is, however, slightly toxic to eukaryotic cells, including cancer cells, which makes it a good anticancer peptide (ACP) candidate. Virtual Ctn dissection with elastase yields two fragments, Ctn[1-14] and Ctn[15-34]. While the former (KRFKKFFKKVKKSV) retains the α-helical conformation of Ctn, it loses both the anticance ...

Data set [7] has as its system A. baumannii. The data set can be described thus: Efficacy assay 2 in mouse systemic infection model. Format: in vivo. The method, then: (§3) A systemic infection model was established in mice, as described before. Briefly, an aliquot from A. baumannii stock in 15% glycerol at −80 °C was taken to culture in 3 mL of LB overnight at 37 °C and 250 rpm. After an OD600 reading to adjust bacterial concentration, the culture was diluted with an identical volume of 10% porcine mucin (an enhancer of bacterial infectivity) to a final 1 × 10^8 CFU/mL concentration. A 10 mL/kg inoculation volume was used for each animal.
Assay 2: In total, 24 mice (12 male, 12 female) randomly distributed into six groups were infected i.p. as described above, then treated in duplicate groups with Ctn[15-34] (20 mg/kg), colistin (5 mg/kg, positive control) or vehicle (HBS, negative control). Treatment (performed blindly) was applied i.p. 2 h after infection and then every 4 h during day 0, and thrice daily for the next 2 days. All animals were checked for clinical signs twice a day for three days, as described in Table S1. On day 2, animals were euthanized with a 200 mg/kg i.p. dose of pentobarbital.
as §2

Data set [8] concerns A. baumannii. The experiment in a line: Colony-forming units (CFU) in mouse tissues. The data set is classed as in vivo. The method, then: CFUs in the spleen and lungs of animals in the efficacy studies were counted after euthanasia. One lung and half of the spleen were extracted from each animal. Animals found dead overnight were excluded. The organs were weighed and homogenized in 1 mL of HBS. Subsequently, six serial 10-fold dilutions were prepared, each dilution seeded on a Petri dish with LB-agar and colonies counted after 16 h incubation at 37 °C. Final CFU counts are expressed relative to organ weight (CFU/g).

The subject of data set [9] is A. baumannii. The data set can be described thus: Efficacy assay 1 in mouse systemic infection model. Format: in vivo. The method, then: as §3
Assay 1: A total of 24 mice (12 male, 12 female) randomly distributed into four groups were infected i.p. as described above, then each group was treated with Ctn[15-34] (30 mg/kg), Ctn re (3 mg/kg), colistin (10 mg/kg, positive control) or vehicle (HBS, negative control). Treatment (performed blindly) was applied 2 h after infection in a single i.p. dose. […]
Nine clinical parameters were assessed by a scoring system (see Table S1). […] In the sighting (tolerance) study, the clinical score was measured at 10 min, 30 min, 1 h, 2 h, 4 h, 7 h, 24 h, and 48 h after peptide administration. In assays 1 and 2 of the tolerance study, scoring was recorded twice a week for 2 weeks. In the efficacy study, the clinical score was recorded every 2–3 h on day 0 and twice a day on days 1 and 2. An animal was euthanized if it scored 3 on any parameter, or if a combined score of 7 or above was reached.

Regarding KKRLKKIFKKPMVIGVTIPF-NH2 [Ctn[15-34]], the “hematoxylin and eosin staining of spleen, lung, liver and kidney” value in the data set on A. baumannii [1] is reported as “apoptosis was noted in the spleen lymphocytes of one animal”. In addition, the “clinical signs in tolerance assay 2” value in the data set on Balb/c mice [2] (20 mg/kg i.p. thrice daily for 3 days, compared with 30 mg/kg) was “reversible and consistently lower than for the 30 mg/kg group”. Besides, in the data set on Balb/c mice [2] (30 and 20 mg/kg i.p. thrice daily for three days, both dosage groups, six female mice each), the “BW loss during the first 24 h” value is listed as 6–9%. The “tolerance in sighting study” value with Balb/c mice [3] was “viable at the predicted dosages”. Also, in the data set with Balb/c mice [4], the “clinical condition in tolerance assay 1” value was “most animals showed improved clinical conditions in the following days”. In addition, the “t1/2” value in data set [5] is 12.8 h.

Take “KRFKKFFKKVKKSV [Ctn[1-14], fragment of crotalicidin, residues 1-14]”: the “anticancer and antimicrobial properties” value in data set [6] is “loses both the anticancer and antimicrobial properties”.

For the compound `CC[C@@H](C)[C@@H](NC(=O)CNC(=O)[C@H](NC(=O)[C@H](NC(=O)[C@H](NC(=O)[C@H]1CCCN1C(=O)[C@H](N)Cc1ccccc1)[C@H](C)CC)[C@H](C)O)C(C)C)C(=O)N[C@@H](C(=O)N[C@H](CCSC)C(=O)N1CCC[C@@H]1C(=O)N[C@H](CCCCN)C(=O)N[C@H](CCCCN)C(=O)N[C@H](Cc1ccccc1)C(=O)N[C@@H](C(=O)N[C@H](CCCCN)C(=O)N[C@H](CCCCN)C(=O)N[C@H](CC(C)C)C(=O)N[C@H](CCCNC(=N)N)C(=O)N[C@H](CCCCN)C(=O)N[C@H](CCCCN)C(N)=O)[C@H](C)CC)C(C)C` [Ctn[15-34] re] (HELM PEPTIDE1{[dF].[dP].[dI].[dT].[dV].G.[dI].[dV].[dM].[dP].[dK].[dK].[dF].[dI].[dK].[dK].[dL].[dR].[dK].[dK].[am]}$$$$V2.0), the “time to death of an animal” value with Balb/c mice [3] (5 mg/kg i.p.) is on record as 33 min; in the data set with Balb/c mice [3] (15 mg/kg i.p.), ≤ 6 min; in the data set on Balb/c mice [3] (30 mg/kg i.p.) it was ≤ 3 min. Besides, the “tolerance in sighting study” value with Balb/c mice [3] is given as “toxic”. In addition, the “t1/2” value in data set [5] was 15.4 h.

For “LL-37: AMP named for comparison of half-life [reference compound]”, the half-life in data set [5] (typical AMP named for comparison with Ctn[15-34], no reference given) was 1 h.

In the case of colistin, the “Gram stain, bacterial load in spleen, lung, liver and kidney” value with A. baumannii [1] is “no evidence of bacterial survival”. Further, the “clinical signs of treated infected animals” value with A. baumannii [7] (efficacy study 2, thrice daily dose of colistin, compared to the previous study) is listed as “Increased toxicity”; with A. baumannii [9] (efficacy assay 1, colistin 10 mg/kg single i.p. dose) it was “weight loss on the first day with subsequent recovery”. Moreover, the “female animals surviving at the endpoint” value in the data set with A. baumannii [7] (efficacy study 2, thrice daily i.p. dosing, female mice) was 75%. Besides, in the data set with A. baumannii [7] (efficacy study 2, thrice daily i.p. dosing, male mice), the “male animals surviving at the endpoint” value was determined as 50%. The “CFU/g in left lung and spleen” value in the data set on A. baumannii [8] (after both efficacy studies, positive control group) is 10^1–10^2 CFU/g. Besides, in the data set with A. baumannii [8] (efficacy study 2, animals not surviving the thrice daily colistin dosage), the “bacterial presence in the spleen or lungs” value was “nearly negligible”. This compound came in with a survival rate in the data set with A. baumannii [9] (efficacy assay 1, single i.p. dose 2 h after infection, colistin 10 mg/kg, 3 days) of 100%.

Regarding `CC[C@@H](C)[C@@H](NC(=O)CNC(=O)[C@H](NC(=O)[C@H](NC(=O)[C@H](NC(=O)[C@H]1CCCN1C(=O)[C@H](N)Cc1ccccc1)[C@H](C)CC)[C@H](C)O)C(C)C)C(=O)N[C@@H](C(=O)N[C@H](CCSC)C(=O)N1CCC[C@@H]1C(=O)N[C@H](CCCCN)C(=O)N[C@H](CCCCN)C(=O)N[C@H](Cc1ccccc1)C(=O)N[C@@H](C(=O)N[C@H](CCCCN)C(=O)N[C@H](CCCCN)C(=O)N[C@H](CC(C)C)C(=O)N[C@H](CCCNC(=N)N)C(=O)N[C@H](CCCCN)C(=O)N[C@H](CCCCN)C(=O)N[C@@H](C(=O)N[C@H](CO)C(=O)N[C@H](CCCCN)C(=O)N[C@H](CCCCN)C(=O)N[C@@H](C(=O)N[C@H](CCCCN)C(=O)N[C@H](CCCCN)C(=O)N[C@H](Cc1ccccc1)C(=O)N[C@H](Cc1ccccc1)C(=O)N[C@H](CCCCN)C(=O)N[C@H](CCCCN)C(=O)N[C@H](Cc1ccccc1)C(=O)N[C@H](CCCNC(=N)N)C(=O)N[C@H](CCCCN)C(N)=O)C(C)C)C(C)C)[C@H](C)CC)C(C)C` [Ctn re] (HELM PEPTIDE1{[dF].[dP].[dI].[dT].[dV].G.[dI].[dV].[dM].[dP].[dK].[dK].[dF].[dI].[dK].[dK].[dL].[dR].[dK].[dK].[dV].[dS].[dK].[dK].[dV].[dK].[dK].[dF].[dF].[dK].[dK].[dF].[dR].[dK].[am]}$$$$V2.0), the “tolerance in sighting study” value in the data set with Balb/c mice [3] is listed as “viable at the predicted dosages”. The “clinical condition in tolerance assay 1” value in the data set on Balb/c mice [4] was “most animals showed improved clinical conditions in the following days”. The “t1/2” value in data set [5] was 3.52 h.

For orientation: half-life means the time needed for the level to fall by half in the phase considered.
